How the values were obtained:
[1] = test system: Leptosphaeria nodorum (LEPTNO); assay: In vitro fungitoxicity of hydrazones with and without copper towards Leptosphaeria nodorum (Example 26); type: cell-based; settings: test compound Concn. 0.05 μg/mL, 72 h at 25° C.; for inhibition of growth at 0.05 µg/mL: Parastagonospora nodorum, 72 h, copper-minus medium, read-out: LEPTNO % Inhn. Minus Copper Observed; for LEPTNO % Inhn. Plus Copper Observed: copper-plus medium (CuCl2 10 μM)
[2] = test system: Phytophthora infestans; type: in vivo, Phytophthora infestans on tomato; settings: hydrazone 50 ppm with 50 μM CuCl2.2H2O, applied 24 h before inoculation; assessed 7 days after inoculation; tomato late blight

SMILES	inhibition of growth at 0.05 µg/mL [1] [%]	LEPTNO % Inhn. Plus Copper Observed [1] [%]	TLB % Control [2] [%]	melting point [°C]
C/C(=N\NC(=O)c1cccc(C)c1)c1cc(Cl)ccc1O [Example 506]	2.7	97.5	44.0	222 to 228
C/C(=N\NC(=O)c1ccc(C)cc1)c1cc(Cl)ccc1O [Example 507]	7.6	97.0	66.0	221 to 228
C/C(=N\NC(=O)c1ccccc1Cl)c1cc(Cl)ccc1O [Example 508]	9.4	97.1	92.0	210 to 217
C/C(=N\NC(=O)c1cccc(Cl)c1)c1cc(Cl)ccc1O [Example 509]	0	96.2	85.0	244 to 249
C/C(=N\NC(=O)c1ccc(Cl)cc1)c1cc(Cl)ccc1O [Example 510]	6.2	95.5	56.0	248 to 252
COc1ccc(C(=O)N/N=C(\C)c2cc(Cl)ccc2O)cc1 [Example 511]	0	97.8	73.0	203 to 228
C/C(=N\NC(=O)c1ccc(Br)cc1)c1cc(Cl)ccc1O [Example 512]	7.4	97.8	59.0	269 to 271
C/C(=N\NC(=O)c1ccc(C(F)(F)F)cc1)c1cc(Cl)ccc1O [Example 513]	14	98.0	53.0	271 to 273
C/C(=N\NC(=O)c1ccccc1Br)c1cc(Cl)ccc1O [Example 514]	0	97.7	75.0	222 to 225
C/C(=N\NC(=O)c1ccccc1O)c1cc(Cl)ccc1O [Example 515]	0	97.6	47.0	298 to 318
COc1ccc(C(=O)N/N=C(\C)c2cc(Br)ccc2O)cc1 [Example 516]	0	97.9	59.0	202 to 252
C/C(=N\NC(=O)c1ccc(Br)cc1)c1cc(Br)ccc1O [Example 517]	0	96.7	56.0	270 to 275
C/C(=N\NC(=O)c1ccc(C(F)(F)F)cc1)c1cc(Br)ccc1O [Example 518]	24.2	97.4	58.0	272 to 280
C/C(=N\NC(=O)c1ccccc1Br)c1cc(Br)ccc1O [Example 519]	9.1	95.7	88.0	216 to 218
C/C(=N\NC(=O)c1ccccc1O)c1cc(Br)ccc1O [Example 520]	14.9	96.7	49.0	281 to 303
COc1ccc(C(=O)N/N=C(\C)c2cccc([N+](=O)[O-])c2O)cc1 [Example 521]	5	95.9	83.0	204 to 212

SMILES	inhibition of growth at 0.05 µg/mL [1] [%]	LEPTNO % Inhn. Plus Copper Observed [1] [%]	TLB % Control [2] [%]	melting point [°C]
C/C(=N\NC(=O)c1ccc(Br)cc1)c1cccc([N+](=O)[O-])c1O [Example 522]	9.4	97.3	95.0	244 to 252
C/C(=N\NC(=O)c1ccc(C(F)(F)F)cc1)c1cccc([N+](=O)[O-])c1O [Example 523]	7	97.7	92.0	267 to 278
C/C(=N\NC(=O)c1ccccc1Br)c1cccc([N+](=O)[O-])c1O [Example 524]	9.3	95.8	39.0	186 to 188
C/C(=N\NC(=O)c1ccccc1O)c1cccc([N+](=O)[O-])c1O [Example 525]	5.4	97.4	78.0	274 to 283
C/C(=N\NC(=O)c1ccccc1)c1cc(C(F)(F)F)ccc1O [Example 527]	7.6	97.6	78.0	226 to 229
C/C(=N\NC(=O)c1ccccc1C)c1cc(C(F)(F)F)ccc1O [Example 528]	8.7	97.7	73.0	200 to 203
C/C(=N\NC(=O)c1cccc(C)c1)c1cc(C(F)(F)F)ccc1O [Example 529]	15.3	97.7	46.0	235 to 238
C/C(=N\NC(=O)c1ccc(C)cc1)c1cc(C(F)(F)F)ccc1O [Example 530]	9.8	96.2	59.0	225 to 229
C/C(=N\NC(=O)c1ccccc1Cl)c1cc(C(F)(F)F)ccc1O [Example 531]	0	97.3	80.0	189 to 191
C/C(=N\NC(=O)c1cccc(Cl)c1)c1cc(C(F)(F)F)ccc1O [Example 532]	4.9	91.4	56.0	241 to 245
C/C(=N\NC(=O)c1ccc(Cl)cc1)c1cc(C(F)(F)F)ccc1O [Example 533]	6.2	97.0	34.0	263 to 265
COc1ccc(C(=O)N/N=C(\C)c2cc(C(F)(F)F)ccc2O)cc1 [Example 534]	5.1	95.7	61.0	228 to 231
C/C(=N\NC(=O)c1ccc(Br)cc1)c1cc(C(F)(F)F)ccc1O [Example 535]	10.1	97.7	56.0	256 to 259
C/C(=N\NC(=O)c1ccc(C(F)(F)F)cc1)c1cc(C(F)(F)F)ccc1O [Example 536]	21.1	93.4	24.0	228 to 234
C/C(=N\NC(=O)c1ccccc1Br)c1cc(C(F)(F)F)ccc1O [Example 537]	12.2	96.2	90.0	192 to 200
